Test results as given in patent US9476099B2 (TRUSTEES OF DARTMOUTH COLLEGE, priority 2012, dated 2016).
Where “and” joins values, the source holds several entries; their conditions need not be identical. Equal values may be shown once.

Test system: NT2/D1-R1 control and DNMT3B knockdown cells
Assay: Genome-wide expression analysis with PAM clusters, control and DNMT3B knockdown cells (Tables 8-14)
Conditions: sh-Ctrl + aza
[1] = NT2/D1-R1, decitabine 10 nM 3 days

## Nc1ncn([C@H]2C[C@H](O)[C@@H](CO)O2)c(=O)n1 [aza]
10 nM decitabine, 3 days
  LOC644422 XR_019449 expression Mean: 332.598
  LOC647954 XR_018676 expression Mean: 1348.27
  LOC728715 XM_0011282 expression Mean: 1760.28
  M6PRBP1 NM_005817 expression Mean: 2017.94
  MBNL3 NM_133486 expression Mean: 338.893
  MCM4 NM_005914 expression Mean: 2945.56
  MEPCE NM_019606 expression Mean: 786.84
  METTL1 NM_005371 expression Mean: 412.423
  MORF4L2 NM_012286 expression Mean: 1621.68
  MRTO4 NM_016183 expression Mean: 893.853
  MT1E NM_175617 expression Mean: 2437.55
  MTA2 NM_004739 expression Mean: 453.486
  MYOF NM_013451 expression Mean: 302.746
  MYOF NM_133337 expression Mean: 612.957
  NACC2 NM_144653 expression Mean: 566.307
  NAT5 NM_181528 expression Mean: 1401.34
  NBPF10 NM_0010376 expression Mean: 816.642
  NBPF10 NM_0010397 expression Mean: 557.142
  NEFH NM_021076 expression Mean: 538.551
  NFE2 NM_006163 expression Mean: 459.796
  NM_002467 expression Mean: 896.83
  NM_0010397 expression Mean: 736.286
  NM_138781 expression Mean: 484.429
  NODAL NM_018055 expression Mean: 954.925
  NOP2 NM_0010337 expression Mean: 7589.18
  NOP56 NM_006392 expression Mean: 1764.44
  NP NM_000270 expression Mean: 475.426
  NR_002773 expression Mean: 596.315
  NR_003287 expression Mean: 634.816
  NTF3 NM_002527 expression Mean: 286.374
  NTS NM_006183 expression Mean: 641.496
  NUAK2 NM_030952 expression Mean: 309.88 and 403.382
  OAT NM_000274 expression Mean: 2902.41
  ODC1 NM_002539 expression Mean: 3243.03
  PAK1IP1 NM_017906 expression Mean: 644.744
  PEA15 NM_003768 expression Mean: 2263.16
  PEG3 NM_006210 expression Mean: 442.766
  PITX1 NM_002653 expression Mean: 947.042
  PLAU NM_002658 expression Mean: 1093.87
  PLEKHF1 NM_024310 expression Mean: 716.406
  POLR1C NM_203290 expression Mean: 533.492 and 971.221
  PPA2 NM_006903 expression Mean: 1058.5
  PPAN NM_002566 expression Mean: 615.062
  RBM22 NM_018047 expression Mean: 921.101
  RNMTL1 NM_018146 expression Mean: 708.14
  RPL6 NM_0010246 expression Mean: 1189.55
  RRM2 NM_001034 expression Mean: 697.476
  RSL1D1 NM_015659 expression Mean: 1413.6
  RUNX3 NM_004350 expression Mean: 484.199
  SERPINE1 NM_000602 expression Mean: 539.652
  SERTAD1 NM_013376 expression Mean: 534.101
  SFXN4 NM_213649 expression Mean: 724.081
  SIDT2 NM_0010404 expression Mean: 528.693
  SLC20A1 NM_005415 expression Mean: 1468.1
  SNAPC4 NM_003086 expression Mean: 1200.9
  SOCS2 NM_003877 expression Mean: 288.614 and 566.518
  SOX15 NM_006942 expression Mean: 2791.76
  SPANXD NM_145665 expression Mean: 210.19
  SPRYD5 NM_032681 expression Mean: 519.493
  SQSTM1 NM_003900 expression Mean: 2145.19
  SRRT NM_015908 expression Mean: 4196.33
  SUSD2 NM_019601 expression Mean: 2570.13
  TAGLN NM_003186 expression Mean: 1178.17
  TNFRSF12A NM_016639 expression Mean: 519.778
  TNFRSF13B NM_012452 expression Mean: 179.31
  TNPO1 NM_153188 expression Mean: 439.283
  TPRG1L NM_182752 expression Mean: 1513.68
  TRIM8 NM_030912 expression Mean: 922.659
  TTC4 NM_004623 expression Mean: 1457.62
  UTP14A NM_006649 expression Mean: 555.285
  WBSCR22 NM_017528 expression Mean: 1107.76
  XM_0011261 expression Mean: 718.505
  XM_0011281 expression Mean: 2231.09
  XR_015970 expression Mean: 1080.49
  XR_016703 expression Mean: 6659.76
  XR_017241 expression Mean: 10363
  XR_017543 expression Mean: 832.234
  ZDHHC6 NM_022494 expression Mean: 528.208
  ZHX2 NM_014943 expression Mean: 479.456
[1]
  A4GALT (NM_017436) gene expression, Mean: 174.249
  ABR (NM_001092) gene expression, Mean: 424.634
  ACACA (NM_198836) gene expression, Mean: 443.13
